Test results as given in ChEMBL document CHEMBL1137057 (Bioorg Med Chem Lett, 2004).

Legend:
[1] = target: T1, Neuronal acetylcholine receptor; alpha4/beta2 (Rattus norvegicus, UniProt P09483+P12390); test: Inhibition of [3H]cytisine binding to Nicotinic acetylcholine receptor alpha4-beta2 of rat cortical membranes; format: cell membranes, Membrane
[2] = target: T1, Neuronal acetylcholine receptor; alpha4/beta2; test: Inhibition of [3H]nicotine binding to Nicotinic acetylcholine receptor alpha4-beta2 of rat cortical membranes; format: cell membranes, Membrane
[3] = target: Neuronal acetylcholine receptor subunit alpha-7 (Rattus norvegicus, UniProt Q05941); test: Inhibition of [3H]-BTX binding to Nicotinic acetylcholine receptor alpha-7 of rat hippocampal membranes; format: cell membranes, Membrane
Mus musculus = species: Mus musculus; test: Effective concentration in antinociception activity in mouse tail flick test; format: functional, organism-based
[4] = target: T1, Neuronal acetylcholine receptor; alpha4/beta2; test: Inhibition of [3H]epibatidine binding to Nicotinic acetylcholine receptor alpha4-beta2 of rat cortical membranes; format: cell membranes, Membrane

T1 sequence (P09483 whole entry): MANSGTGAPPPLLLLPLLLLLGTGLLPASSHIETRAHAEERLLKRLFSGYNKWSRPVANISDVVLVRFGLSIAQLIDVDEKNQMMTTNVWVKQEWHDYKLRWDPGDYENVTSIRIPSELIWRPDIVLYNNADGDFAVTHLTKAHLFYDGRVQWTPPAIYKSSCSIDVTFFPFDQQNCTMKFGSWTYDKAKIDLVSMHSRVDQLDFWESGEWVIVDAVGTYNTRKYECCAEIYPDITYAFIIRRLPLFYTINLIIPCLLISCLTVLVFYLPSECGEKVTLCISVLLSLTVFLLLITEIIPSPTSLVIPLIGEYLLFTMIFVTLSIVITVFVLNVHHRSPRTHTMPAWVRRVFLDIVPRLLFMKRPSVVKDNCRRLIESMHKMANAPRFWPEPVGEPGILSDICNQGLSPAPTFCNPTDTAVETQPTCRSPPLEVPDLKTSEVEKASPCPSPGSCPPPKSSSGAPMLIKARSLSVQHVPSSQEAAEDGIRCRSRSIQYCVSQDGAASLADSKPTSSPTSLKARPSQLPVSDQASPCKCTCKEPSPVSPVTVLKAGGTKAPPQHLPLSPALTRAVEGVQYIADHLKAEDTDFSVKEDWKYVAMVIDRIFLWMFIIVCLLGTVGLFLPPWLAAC
T1 sequence (P12390 whole entry): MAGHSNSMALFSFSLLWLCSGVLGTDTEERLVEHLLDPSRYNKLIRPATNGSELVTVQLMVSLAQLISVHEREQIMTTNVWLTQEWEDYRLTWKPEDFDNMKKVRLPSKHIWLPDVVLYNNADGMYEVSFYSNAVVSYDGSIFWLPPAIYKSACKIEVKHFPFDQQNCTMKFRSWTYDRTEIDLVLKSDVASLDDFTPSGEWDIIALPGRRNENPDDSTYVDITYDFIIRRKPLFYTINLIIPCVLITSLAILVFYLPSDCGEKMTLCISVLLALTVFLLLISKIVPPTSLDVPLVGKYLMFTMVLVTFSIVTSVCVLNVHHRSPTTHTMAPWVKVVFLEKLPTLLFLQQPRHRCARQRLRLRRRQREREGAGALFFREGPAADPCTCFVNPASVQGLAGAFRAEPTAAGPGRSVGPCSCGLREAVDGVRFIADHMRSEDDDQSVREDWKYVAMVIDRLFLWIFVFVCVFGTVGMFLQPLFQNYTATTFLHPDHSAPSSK
Chain of Neuronal acetylcholine receptor subunit alpha-7 (Q05941 whole entry): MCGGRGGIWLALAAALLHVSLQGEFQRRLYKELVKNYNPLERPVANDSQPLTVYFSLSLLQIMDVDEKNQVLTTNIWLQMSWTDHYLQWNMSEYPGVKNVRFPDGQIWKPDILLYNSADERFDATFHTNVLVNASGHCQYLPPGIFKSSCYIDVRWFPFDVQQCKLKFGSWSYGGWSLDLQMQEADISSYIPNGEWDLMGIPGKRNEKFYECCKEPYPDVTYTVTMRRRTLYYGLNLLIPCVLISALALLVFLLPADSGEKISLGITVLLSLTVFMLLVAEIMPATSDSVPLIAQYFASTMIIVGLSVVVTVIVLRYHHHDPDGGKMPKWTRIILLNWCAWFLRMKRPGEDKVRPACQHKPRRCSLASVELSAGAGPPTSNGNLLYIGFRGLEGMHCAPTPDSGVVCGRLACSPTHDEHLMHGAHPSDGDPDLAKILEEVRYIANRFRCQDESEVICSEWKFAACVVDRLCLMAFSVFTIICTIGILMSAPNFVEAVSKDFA

SMILES | Ki [1] | Ki [2] | Ki [3] | further results
Clc1ccc(C2CC3CNC32)cn1 (stereo not given) | 3.9 nM | – | – | –
Clc1ccc(C2CC3CNC2C3)cn1 (stereo not given) | 6.6 nM | > 38 nM | 1600 nM | –
Clc1ccc(C2CC3NCC32)cn1 (stereo not given) | 5 nM | – | – | –
Clc1ccc([C@@H]2CC3CC2CN3)cn1 (stereo not given in full) | – | 0.05 nM | 6.3 nM | –
Clc1ccc([C@@H]2CC3CNC2C3)cn1 (stereo not given in full) | 0.03 nM | 0.04 nM | 3.9 nM | –
Clc1ccc(C2CC3CCC2NC3)cn1 (stereo not given) | 0.47 nM | – | – | EC50 (Mus musculus): 0.04 mg/kg
Clc1ccc(C2CC3CC2CN3)cn1 (stereo not given) | 30 nM | > 38 nM | 3300 nM | –
Clc1ccc(C2CCC3CCC2N3)cn1 (stereo not given) | – | – | – | Ki [4]: 1.6 nM
Clc1ccc(C2CC3CCCCC2N3)cn1 (single isomer, unassigned; (-)) | – | 0.35 nM | – | –
Clc1ccc(C2CC3CCCCC2N3)cn1 (stereo in doubt; 16 (+)) | – | 0.13 nM | – | –
Clc1ccc(C2CC3CCCCC2N3)cn1 (stereo in doubt; 17) | – | 1.25 nM | – | –
Clc1ccc(C2CC3CCC2N3)cn1 (stereo not given) [EPIBATIDINE] | – | – | – | EC50 (Mus musculus): 0.01 mg/kg
